Reference: patent US4820834A, “Benzodiazepine analogs” (priority 1987, dated 1989)
Where two headings read alike, the source gives them in different places.

Experiments:
[1] = biological target: T1, CCK receptor (pancreas) (Rattus norvegicus, UniProt P30551); experiment: CCK Receptor Binding (Pancreas): inhibition of ^125 I-CCK-33 binding; parameters: species or system Male Sprague-Dawley rats; conditions: rat pancreas membranes, ^125 I-CCK-33, 37° C., 30 minutes
T1 construct: The whole pancreas was dissected free of fat tissue and was homogenized; from tissue; host or cells: rat pancreas membranes (Sprague-Dawley)
T1 sequence (P30551 1-444): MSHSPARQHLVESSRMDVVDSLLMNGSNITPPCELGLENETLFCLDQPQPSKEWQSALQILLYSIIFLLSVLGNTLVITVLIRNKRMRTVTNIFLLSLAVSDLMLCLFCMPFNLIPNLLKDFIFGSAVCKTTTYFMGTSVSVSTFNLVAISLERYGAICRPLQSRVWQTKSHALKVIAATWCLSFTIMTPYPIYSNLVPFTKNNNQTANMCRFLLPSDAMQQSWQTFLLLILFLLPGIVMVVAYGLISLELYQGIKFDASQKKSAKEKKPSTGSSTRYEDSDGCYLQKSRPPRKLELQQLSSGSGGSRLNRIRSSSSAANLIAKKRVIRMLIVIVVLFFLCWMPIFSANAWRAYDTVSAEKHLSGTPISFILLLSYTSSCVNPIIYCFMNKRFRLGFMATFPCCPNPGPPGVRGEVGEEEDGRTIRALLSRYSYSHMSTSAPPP
Protocol: 1. CCK Receptor Binding (Pancreas)
CCK-33 was radiolabeled with ^125 I-Bolton Hunter reagent (2000 Ci/mmole) as described by Sankara et al. (J. Biol. Chem. 254: 9349-9351, 1979). Receptor binding was performed according to Innis and Snyder (Proc. Natl. Acad. Sci. 77: 6917-6921, 1980) with the minor modification of adding the additional protease inhibitors, phenylmethane sulfonyl fluoride and o-phenanthroline.
Male Sprague-Dawley rats (200-350 g) were sacrificed by decapitation. The whole pancreas was dissected free of fat tissue and was homogenized in 20 volumes of ice-cold 50 mM, Tris HCl (pH 7.7 at 25° C.) with a Brinkmann Polytron PT 10. The homogenates were centrifuged at 48,000 g for 10 min. Pellets were resuspended in Tris Buffer, centrifuged as above and resuspended in 200 volumes of binding assay buffer (50 mM Tris HCl, pH 7.7 at 25° C., 5 mM dithiothrietol, 0.1 mM bacitracin, 1.2 mM phenylmethane sulfonyl fluoride and 0.5 mM o-phenanthroline). […] All assays were run in duplicate or triplicate. The reaction mixtures were incubated at 37° C. for 30 minutes and centrifuged in a Beckman Microfuge (4 minutes) immediately after adding 1 ml of ice-cold incubation buffer. The supernatant was aspirated and discarded, pellets were counted with a Beckman gamma 5000. For Scatchard analysis (Ann. N.Y. Acad. Sci. 51: 660, 1949), ^125 I-CCK-33 was progressively diluted with increasing concentrations of CCK-33.

[2] = biological target: T2, CCK receptor (brain, cerebral cortex) (Cavia porcellus, UniProt H0VZC5); experiment: biochemical; assay type: binding, Male Hartley guinea pigs
T2 construct: Cerebral cortex was dissected and used as a receptor source; from tissue; host or cells: guinea pig cerebral cortex membranes (male Hartley)
T2 sequence (H0VZC5 1-426): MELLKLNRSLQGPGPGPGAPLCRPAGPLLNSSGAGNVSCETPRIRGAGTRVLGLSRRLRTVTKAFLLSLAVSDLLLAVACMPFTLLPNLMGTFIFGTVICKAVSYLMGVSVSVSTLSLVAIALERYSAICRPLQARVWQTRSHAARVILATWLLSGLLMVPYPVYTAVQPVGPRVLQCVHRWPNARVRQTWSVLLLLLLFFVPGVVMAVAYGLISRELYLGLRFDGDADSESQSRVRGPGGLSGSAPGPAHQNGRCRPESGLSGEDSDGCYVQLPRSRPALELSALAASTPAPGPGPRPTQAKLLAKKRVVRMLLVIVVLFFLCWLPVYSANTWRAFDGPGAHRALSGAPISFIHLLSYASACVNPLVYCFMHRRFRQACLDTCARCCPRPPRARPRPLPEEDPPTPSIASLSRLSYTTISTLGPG
In short: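 Binding of [radiolabeled] CCK-33 measured by gamma counting of centrifuged pellets after 2 h at 25°C. Membranes came from guinea pig brain cortex, suspended in 10 mM HEPES, 5 mM MgCl2, 1 mM EGTA, 0.25 mg/ml bacitracin, 0.4% BSA.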

[3] = biological target: T3, Gastrin receptor (gastric glands) (Cavia porcellus, UniProt H0VZC5); experiment: Gastrin Receptor Binding in Guinea Pig Gastric Glands; parameters: species or system guinea pig (male Hartley); conditions: 25° C., 30 minutes
T3 construct: The washed guinea pig gastric glands prepared as above were resuspended; from tissue; host or cells: guinea pig gastric mucosal glands (male Hartley)
T3 sequence (H0VZC5 1-426): T2 sequence (H0VZC5 1-426)

[4] = read-out: IC50 ^125 I-CCK Pancreas
[5] = IC50 ^125 I-CCK Brain, guinea pig cerebral cortex, ^125 I-CCK-33, 25° C., 2 hours
[6] = ^125 I-gastrin, read-out: IC50 ^125 I-Gastrin Gastric Glands
[7] = IC50 ^125 I-Gastrin Gastric Glands
[8] = guinea pig cerebral cortex, ^125 I-CCK-33, 25° C., 2 hours, read-out: IC50 ^125 I-CCK Brain

| Compound | IC50 [1, 4] [nM] | IC50 [2, 5] [nM] | IC50 [3, 6] [nM] | IC50 [3, 7] [nM] | IC50 [2, 8] [nM] | IC50 ([1]; IC50 ^125 I-CCK Pancreas) [nM] | IC50 ([2]; read-out: IC50 ^125 I-CCK Brain) [nM] |
| --- | --- | --- | --- | --- | --- | --- | --- |
| CN1C(=O)[C@@H](NC(=O)c2ccc(Cl)cc2)N=C(c2ccccc2F)c2ccccc21 [Example 91, 3(S)-(+)-1,3-Dihydro-3-(4-chlorobenzoylamino)-5-(2-fluorophenyl)-1-methyl-2H-1,4-benzodiazepin-2-one] | 2.5 | 2900 | 800 | – | – | – | – |
| CN1C(=O)C(NC(=O)Nc2ccc(Cl)c(Cl)c2)N=C(c2ccccc2)c2ccccc21 (stereo not drawn) [Example 257, N-(3,4-Dichlorophenyl)-N'-(2,3-dihydro-1-methyl-2-oxo-5-phenyl-1H-1,4-benzodiazepin-3-yl)-urea] | 26 | 67 | – | 48 | – | – | – |
| Cc1ccc(NC(=O)N[C@@H]2N=C(c3ccccc3)c3ccccc3N(C)C2=O)cc1 [Example 293, (R)-N-(2,3-Dihydro-1-methyl-2-oxo-5-phenyl-1H-1,4-benzodiazepin-3-yl)-N'-(4-methylphenyl)-urea] | 3100 | 6.5 | – | 2.5 | – | – | – |
| CN1C(=O)[C@@H](NC(=O)c2ccccc2I)N=C(c2ccccc2F)c2ccccc21 [Example 170, 3(S)-(-)-1,3-Dihydro-5-(2-fluorophenyl)-3-(2-iodobenzoylamino)-1-methyl-2H-1,4-benzodiazepin-2-one] | 800 | 45000 | 11000 | – | – | – | – |
| COc1cccc(NC(=O)N[C@@H]2N=C(c3ccccc3)c3ccccc3N(C)C2=O)c1 [Example 266, (R)-N-(2,3-Dihydro-1-methyl-2-oxo-5-phenyl-1H-1,4-benzodiazepin-3-yl)-N'-(3-methoxyphenyl)-urea] | 600 | 2.2 | 1.3 | – | – | – | – |
| O=C(Nc1ccc(Cl)cc1)NC1N=C(c2ccccc2)c2ccccc2N(CC(=O)OCc2ccccc2)C1=O (stereo not drawn) [Example 208, 3-((((4-Chlorophenyl)amino)carbonyl)amino)-2,3-dihydro-2-oxo-5-phenyl-1H-1,4-benzodiazepine-1-acetic acid phenylmethyl ester] | 1300 | – | 140 | – | 44 | – | – |
| CN1C(=O)[C@@H](NC(=O)c2cc3ccccc3[nH]2)N=C(c2ccccc2F)c2ccccc21 [Example 88, 3(S)-(+)-1,3-Dihydro-5-(2-fluorophenyl)-3-(2-indole-carbonylamino)-1-methyl-2H-1,4-benzodiazepin-2-one] | 0.6 | 300 | 27 | – | – | – | – |
| C[C@@H](NC(=O)NC1N=C(c2ccccc2)c2ccccc2N(C)C1=O)c1ccccc1 (stereo partly drawn) [Example 261, N-(2,3-Dihydro-1-methyl-2-oxo-5-phenyl-1H-1,4-benzodiazepin-3-yl)-N'-((R)1-phenylethyl)-urea] | – | 11000 | 3200 | – | – | 430 | – |
| CN1C(=O)C(NC(=O)Nc2ccc(Br)cc2)N=C(c2ccccc2)c2ccccc21 (stereo not drawn) [Example 255] | 130 | 48 | – | 32 | – | – | – |
| CN1C(=O)C(C(O)c2cccs2)N=C(c2ccccc2)c2ccccc21 (racemic) [Example 52, 1,3-Dihydro-3(RS)-[1-hydroxy-1-(2-thienyl)]methyl-1-methyl-5-phenyl-2H-1,4-benzodiazepin-2-one] | – | – | 26000 | – | 33000 | > 100000 | – |
| CN1C(=O)C(C(=O)c2ccsc2)=NC(O)(c2ccccc2)c2ccccc21 (racemic) [Example 53b, 1,5-Dihydro-5-(RS)-hydroxy-1-methyl-5-phenyl-3-(3'-thienoyl)-2H-1,4-benzodiazepin-2-one] | 19000 | – | > 100000 | – | 100000 | – | – |
| CC(C)CCN1C(=O)[C@@H](Cc2c[nH]c3ccccc23)N=C(c2ccccc2F)c2ccccc21 [Example 39, 1,3-Dihydro-5-(2-fluorophenyl)-3(R)-(3'-indolyl) methyl-1-(3-methylbutyl)-2H-1,4-benzodiazepine-2-one] | – | 30000 | – | 23000 | – | 100000 | – |
| CN1C(=O)C(C(=O)Nc2ccc(Cl)cc2)N=C(c2ccccc2)c2ccccc21 (stereo not drawn) [Example 197, N-(4-Chlorphenyl)-2,3-dihydro-1-methyl-2-oxo-5-phenyl-1H-1,4-benzodiazepine-3-carboxamide] | – | – | 10000 | – | 5900 | 1900 | – |
| CN1C(=O)C(CC(=O)Nc2ccc(Cl)cc2)N=C(c2ccccc2)c2ccccc21 (stereo not drawn) [Example 297, N-(4-Chlorophenyl)-2,3-dihydro-1-methyl-2-oxo-5-phenyl-1H-1,4-benzodiazepine-3-acetamide] | – | – | 5200 | – | 3700 | 1800 | – |
| O=C(NC1N=C(c2ccccc2F)c2ccccc2NC1=O)c1ccc(Cl)cc1 (racemic) [Example 111, 1,3-Dihydro-3-(RS)-(4-chlorophenylcarbonyl)amino-5-(2-fluorophenyl)-2H-1,4-benzodiazepin-2-one] | – | 40000 | – | 8400 | – | 7 | – |
| CC(C)(C)OC(=O)N[C@H](Cc1c[nH]c2ccccc12)C(=O)Nc1ccccc1C(=O)c1ccccc1F [Example 1, 2-N-(Nα-Boc-D-tryptophanyl)amino-2'-fluorobenzophenone] | 67000 | – | 167000 | – | – | – | > 100000 |
| CN1C(=O)[C@@H](NC(=O)c2ccc(Br)cc2)N=C(c2ccccc2)c2ccccc21 [Example 92, 3(S)-(-)-1,3-Dihydro-3-(4-bromobenzoylamino)-1-methyl-5-phenyl-2H-1,4-benzodiazepin-2-one] | – | 1600 | 620 | – | – | 4.3 | – |
| CN1C(=O)C(NC(=O)Nc2ccccc2)N=C(c2ccccc2)c2ccccc21 (stereo not drawn) [Example 250, N-(2,3-Dihydro-1-methyl-2-oxo-5-phenyl-1H-1,4-benzodiazepin-3-yl)-N'-phenylurea] | 8.3 | – | 9 | – | 32 | – | – |
| CN1C(=O)[C@H](NC(=O)c2ccc(Br)cc2)N=C(c2ccccc2)c2ccccc21 [Example 93, 3(R)-(+)-1,3-Dihydro-3-(4-bromobenzoylamino)-1-methyl-5-phenyl-2H-1,4-benzodiazepin-2-one] | 700 | 2900 | 2000 | – | – | – | – |
| COc1cccc(CC(=O)N[C@@H]2N=C(c3ccccc3)c3ccccc3N(C)C2=O)c1 [Example 269, (R)-N-(2,3-Dihydro-1-methyl-2-oxo-5-phenyl-1H-1,4-benzodiazepin-3-yl)-3-methoxybenzenacetamide] | – | – | 450 | – | 690 | 45000 | – |
